Test results as given in patent publication US8309581B2, “Benzimidazole derivatives” (Hoffmann-La Roche Inc., priority 2009, dated 2012).
pIC50: −log10 of the molar value.

Molecular target: T1, FXR ligand binding domain (Homo sapiens, UniProt Q96RI1)
T1 construct: made in house; host or cells: E. coli BL21 (pLysS)
T1 sequence (Q96RI1 193-472 isoform Q96RI1-2): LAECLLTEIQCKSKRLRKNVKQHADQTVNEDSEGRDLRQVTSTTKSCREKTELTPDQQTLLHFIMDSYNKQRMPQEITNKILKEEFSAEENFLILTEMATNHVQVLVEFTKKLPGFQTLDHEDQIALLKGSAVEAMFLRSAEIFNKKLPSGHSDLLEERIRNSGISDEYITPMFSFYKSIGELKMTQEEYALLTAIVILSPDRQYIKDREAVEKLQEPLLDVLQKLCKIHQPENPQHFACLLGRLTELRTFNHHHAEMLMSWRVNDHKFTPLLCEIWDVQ
Assay: Radioligand Binding Assay (scintillation proximity radioligand displacement)
Details: GST-FXR LBD fusion protein on SPA beads, test compound 6×10^−9 M to 2.5×10^−5 M
Description: The following tests were carried out in order to determine the activity of the compounds of formula (I). Background information on the binding assay can be found in: Nichols J S et al. “Development of a scintillation proximity assay for peroxisome proliferator-activated receptor gamma ligand binding domain”, (1998) Anal. Biochem. 257: 112-119.
Bacterial and mammalian expression vectors were constructed to produce glutathione-s-transferase (GST) and Gal4 DNA binding domain (GAL) proteins fused to the ligand binding domain (LBD) of human FXR (aa 193-473). To accomplish this, the portions of the sequences encoding the FXR LBD were amplified by polymerase chain reaction (PCR) from a full-length clone by PCR and then subcloned into the plasmid vectors. The final clone was verified by DNA sequence analysis.
The induction, expression, and subsequent purification of GST-LBD fusion protein was performed in E. coli strain BL21 (pLysS) cells by standard methods (Current Protocols in Molecular Biology, Wiley Press, ed. Ausubel et al.).
Radioligand Binding Assay
Binding of test substances to the FXR ligand binding domain was assessed in a radioligand displacement assay. The assay was performed in a buffer consisting of 50 mM Hepes, pH 7.4, 10 mM NaCl, 5 mM MgCl2, 0.01% CHAPS. For each reaction well in a 96-well plate, 40 nM of GST-FXR LBD fusion protein was bound to […] glutathione ytrium silicate SPA beads (PharmaciaAmersham) in a final volume of […] by shaking. A radioligand (e.g., 20 nM of 2,N-dicyclohexyl-2-[2-(2,4 dimethoxy-phenyl)-benzoimidazol-1-yl]-acetamide) and test compounds were added, and scintillation proximity counting was performed. All binding assays were performed in 96-well plates and the amount of bound ligand was measured on a Packard TopCount using OptiPlates (Packard). Dose response curves were performed within a range of test compound concentrations from 6×10^−9 M to 2.5×10^−5 M and IC50 values were calculated.

Question: With `Fc1cc2nc(-c3ccc(Cl)cc3OCC3CCCC3)n(CC3CCCCC3)c2cc1F` [Example 20, 2-(4-Chloro-2-cyclopentylmethoxy-phenyl)-1-cyclohexylmethyl-5,6-difluoro-1H-benzoimidazole] as the compound, how does the pIC50 read?
Answer: Its pIC50 is 6.70.

Question: `Clc1ccc(-c2nc3ccccc3n2CC2CCCCC2)c(CCc2ccc(-c3nnn[nH]3)cc2)c1` [Example 74, 2-(4-Chloro-2-{2-[4-(1H-tetrazol-5-yl)-phenyl]-ethyl}-phenyl)-1-cyclohexylmethyl-1H-benzoimidazole] was tested. Which pIC50 did it give?
Answer: Its pIC50 is 7.52.

Question: With `COc1cc(-c2nnn[nH]2)ccc1COc1cc(Cl)ccc1-c1nc2cc(F)c(F)cc2n1CC1CCCCC1` [Example 35, 2-{4-Chloro-2-[2-methoxy-4-(1H-tetrazol-5-yl)-benzyloxy]-phenyl}-1-cyclohexylmethyl-5,6-difluoro-1H-benzoimidazole] as the compound, how does the pIC50 read?
Answer: Its pIC50 is 7.30.

Question: With `O=C(O)COc1ccc(CCc2ccccc2-c2nc3ccccc3n2CC2CCCCC2)cc1` [Example 79, (4-{2-[2-(1-Cyclohexylmethyl-1H-benzoimidazol-2-yl)-phenyl]-ethyl}-phenoxy)-acetic acid] as the compound, how does the pIC50 read?
Answer: The pIC50 was 7.10.

Question: How did the pIC50 turn out when `Fc1cc2nc(-c3ccc(Cl)cc3OCc3ccccc3Cl)n(Cc3cccc(Cl)c3)c2cc1F` [Example 53, 1-(3-Chloro-benzyl)-2-[4-chloro-2-(2-chloro-benzyloxy)-phenyl]-5,6-difluoro-1H-benzoimidazole] was run?
Answer: The pIC50 was 5.77.

Question: With `Fc1cc2nc(-c3ccc(Cl)cc3OC3CCCCC3)n(Cc3ccc(-c4nnn[nH]4)cc3F)c2cc1F` [Example 96, 2-(4-Chloro-2-cyclohexyloxy-phenyl)-5,6-difluoro-1-[2-fluoro-4-(1H-tetrazol-5-yl)-benzyl]-1H-benzoimidazole] as the compound, how does the pIC50 read?
Answer: Its pIC50 is 7.70.

Question: How did the pIC50 turn out when `O=C(O)Cc1ccc(COc2cc(Cl)ccc2-c2nc3cc(F)c(F)cc3n2CC2CCCCC2)cc1` [Example 28, {4-[5-Chloro-2-(1-cyclohexylmethyl-5,6-difluoro-1H-benzoimidazol-2-yl)-phenoxymethyl]-phenyl}-acetic acid] was run?
Answer: The pIC50 was 6.70.

Question: `O=C(O)CCc1ccc(Cn2c(-c3ccc(Cl)cc3OCC3CCCC3)nc3cc(F)c(F)cc32)cc1` [Example 59, 3-{4-[2-(4-Chloro-2-cyclopentylmethoxy-phenyl)-5,6-difluoro-benzoimidazol-1-ylmethyl]-phenyl}-propionic acid] was tested. Which pIC50 did it give?
Answer: Its pIC50 is 6.52.

Question: How did the pIC50 turn out when `Fc1cc2nc(-c3cccnc3OCC3CCCC3)n(Cc3cccc(Cl)c3)c2cc1F` [Example 12, 1-(3-Chloro-benzyl)-2-(2-cyclopentylmethoxy-pyridin-3-yl)-5,6-difluoro-1H-benzoimidazole] was run?
Answer: Its pIC50 is 5.82.

Question: `O=C(O)CCc1ccc(Cn2c(-c3cccnc3OCC3CCCC3)nc3cc(F)c(F)cc32)cc1` [Example 18, 3-{4-[2-(2-Cyclopentylmethoxy-pyridin-3-yl)-5,6-difluoro-benzoimidazol-1-ylmethyl]-phenyl}-propionic acid] was tested. Which pIC50 did it give?
Answer: Its pIC50 is 4.52.

Question: `Fc1cc2nc(-c3ccc(Cl)cc3OCc3ccc(-c4nnn[nH]4)c(F)c3)n(CC3CCCCC3)c2cc1F` [Example 33, 2-{4-Chloro-2-[3-fluoro-4-(1H-tetrazol-5-yl)-benzyloxy]-phenyl}-1-cyclohexylmethyl-5,6-difluoro-1H-benzoimidazole] was tested. Which pIC50 did it give?
Answer: The pIC50 was 7.40.

Question: `Fc1cc2nc(-c3ccc(Cl)cc3OCC3CC3)n(Cc3ccc(-c4nnn[nH]4)cc3F)c2cc1F` [Example 89, 2-(4-Chloro-2-cyclopropylmethoxy-phenyl)-5,6-difluoro-1-[2-fluoro-4-(1H-tetrazol-5-yl)-benzyl]-1H-benzoimidazole] was tested. Which pIC50 did it give?
Answer: The pIC50 was 7.22.

Question: With `O=C(O)CCc1ccc(Cn2c(-c3ccc(Cl)cc3OCC3CC3)nc3cc(F)c(F)cc32)cc1` [Example 60, 3-{4-[2-(4-Chloro-2-cyclopropylmethoxy-phenyl)-5,6-difluoro-benzoimidazol-1-ylmethyl]-phenyl}-propionic acid] as the compound, how does the pIC50 read?
Answer: Its pIC50 is 5.89.

Question: `Fc1cc2nc(-c3cccnc3OCC3CCCC3)n(Cc3ccccc3)c2cc1F` [Example 7, 1-Benzyl-2-(2-cyclopentylmethoxy-pyridin-3-yl)-5,6-difluoro-1H-benzoimidazole] was tested. Which pIC50 did it give?
Answer: Its pIC50 is 5.42.

Question: How did the pIC50 turn out when `c1ccc(-c2nc3ccccc3n2CC2CCCCC2)c(CCc2ccc(-c3nnn[nH]3)cc2)c1` [Example 80, 1-Cyclohexylmethyl-2-(2-{2-[4-(1H-tetrazol-5-yl)-phenyl]-ethyl}-phenyl)-1H-benzoimidazole] was run?
Answer: The pIC50 was 7.52.

Question: With `Fc1cc2nc(-c3cccnc3OCC3CC3)n(Cc3cccc(Cl)c3)c2cc1F` [Example 13, 1-(3-Chloro-benzyl)-2-(2-cyclopropylmethoxy-pyridin-3-yl)-5,6-difluoro-1H-benzoimidazole] as the compound, how does the pIC50 read?
Answer: The pIC50 was 5.44.

Question: `Fc1cc2nc(-c3ccc(Cl)cc3OCc3ccc(-c4nnn[nH]4)cc3C(F)(F)F)n(CC3CCCCC3)c2cc1F` [Example 38, 2-{4-Chloro-2-[4-(1H-tetrazol-5-yl)-2-trifluoromethyl-benzyloxy]-phenyl}-1-cyclohexylmethyl-5,6-difluoro-1H-benzoimidazole] was tested. Which pIC50 did it give?
Answer: Its pIC50 is 6.70.

Question: `CCCOc1cc(Cl)ccc1-c1nc2cc(F)c(F)cc2n1Cc1ccc(-c2nnn[nH]2)cc1F` [Example 91, 2-(4-Chloro-2-propoxy-phenyl)-5,6-difluoro-1-[2-fluoro-4-(1H-tetrazol-5-yl)-benzyl]-1H-benzoimidazole] was tested. Which pIC50 did it give?
Answer: Its pIC50 is 7.30.

Question: With `c1ccc(-c2nc3ccccc3n2CCC2CCCCC2)c(CCc2ccc(-c3nnn[nH]3)cc2)c1` [Example 83, 1-(2-Cyclohexyl-ethyl)-2-(2-{2-[4-(1H-tetrazol-5-yl)-phenyl]-ethyl}-phenyl)-1H-benzoimidazole] as the compound, how does the pIC50 read?
Answer: The pIC50 was 8.00.

Question: How did the pIC50 turn out when `O=C(O)CCc1ccc(Cn2c(-c3cccnc3OCc3ccccc3Cl)nc3cc(F)c(F)cc32)cc1` [Example 17, 3-(4-{2-[2-(2-Chloro-benzyloxy)-pyridin-3-yl]-5,6-difluoro-benzoimidazol-1-ylmethyl}-phenyl)-propionic acid] was run?
Answer: The pIC50 was 4.99.

Question: How did the pIC50 turn out when `O=C(Nc1cc(Cl)ccc1-c1nc2cc(F)c(F)cc2n1CC1CCCCC1)c1ccc(-c2nnn[nH]2)cc1F` [Example 84, N-[5-Chloro-2-(1-cyclohexylmethyl-5,6-difluoro-1H-benzoimidazol-2-yl)-phenyl]-2-fluoro-4-(1H-tetrazol-5-yl)-benzamide] was run?
Answer: The pIC50 was 9.70.

Question: `CC1CCC(Cn2c(-c3ccccc3CCc3ccc(-c4nnn[nH]4)cc3)nc3ccccc32)CC1` (centres unmarked) [Example 82, 1-(4-Methyl-cyclohexylmethyl)-2-(2-{2-[4-(1H-tetrazol-5-yl)-phenyl]-ethyl}-phenyl)-1H-benzoimidazole] was tested. Which pIC50 did it give?
Answer: The pIC50 was 8.00.

Question: `COc1cc(Cl)ccc1-c1nc2cc(F)c(F)cc2n1Cc1ccc(-c2nnn[nH]2)cc1F` [Example 71, 2-(4-Chloro-2-methoxy-phenyl)-5,6-difluoro-1-[2-fluoro-4-(1H-tetrazol-5-yl)-benzyl]-1H-benzoimidazole] was tested. Which pIC50 did it give?
Answer: The pIC50 was 5.96.

Question: With `Fc1cc2nc(-c3cccnc3OCc3ccccc3Cl)n(Cc3cccc(Cl)c3)c2cc1F` [Example 11, 1-(3-Chloro-benzyl)-2-[2-(2-chloro-benzyloxy)-pyridin-3-yl]-5,6-difluoro-1H-benzoimidazole] as the compound, how does the pIC50 read?
Answer: The pIC50 was 6.10.

Question: With `Fc1cc2nc(-c3cccnc3OCC3CC3)n(Cc3ccccc3)c2cc1F` [Example 8, 1-Benzyl-2-(2-cyclopropylmethoxy-pyridin-3-yl)-5,6-difluoro-1H-benzoimidazole] as the compound, how does the pIC50 read?
Answer: The pIC50 was 5.25.

Question: `O=C(O)C1CCC(Cn2c(-c3ccc(Cl)cc3OCC3CCCC3)nc3cc(F)c(F)cc32)CC1` (centres unmarked) [Example 66, 4-[2-(4-Chloro-2-cyclopentylmethoxy-phenyl)-5,6-difluoro-benzoimidazol-1-ylmethyl]-cyclohexane carboxylic acid] was tested. Which pIC50 did it give?
Answer: Its pIC50 is 5.74.
